Results on 11 molecules are retold here after article PMC3130825 (Journal of medicinal chemistry, 2010).

SMILES strings stand for the structures. “And” between values parts separate entries of the source, which are not always exact repeats. Identical values can stand only once.

Series [1] relates to nicotine-induced antinociception (tail-flick). The series is described as follows: Block of nicotine-induced antinociception, tail-flick test. It is filed as in vivo, mice. The following applies: for ED50: Mus musculus, read-out: AD50 Tail-flick; for potency relative to 2 in the tail-flick assay: mouse, in vivo. (Thermal pain tests record how soon the animal reacts.)
Another series has as its target hNET (Homo sapiens, UniProt P23975). As to the kind of experiment: [3H]norepinephrine uptake inhibition in HEK293 cells. It is filed as cell-based. As to conditions: for potency relative to 2 as NE uptake inhibitor: better than 2.
A further series deals with hSERT (Homo sapiens, UniProt P31645). Format: cell-based.
Sequence of hSERT (P31645 whole entry): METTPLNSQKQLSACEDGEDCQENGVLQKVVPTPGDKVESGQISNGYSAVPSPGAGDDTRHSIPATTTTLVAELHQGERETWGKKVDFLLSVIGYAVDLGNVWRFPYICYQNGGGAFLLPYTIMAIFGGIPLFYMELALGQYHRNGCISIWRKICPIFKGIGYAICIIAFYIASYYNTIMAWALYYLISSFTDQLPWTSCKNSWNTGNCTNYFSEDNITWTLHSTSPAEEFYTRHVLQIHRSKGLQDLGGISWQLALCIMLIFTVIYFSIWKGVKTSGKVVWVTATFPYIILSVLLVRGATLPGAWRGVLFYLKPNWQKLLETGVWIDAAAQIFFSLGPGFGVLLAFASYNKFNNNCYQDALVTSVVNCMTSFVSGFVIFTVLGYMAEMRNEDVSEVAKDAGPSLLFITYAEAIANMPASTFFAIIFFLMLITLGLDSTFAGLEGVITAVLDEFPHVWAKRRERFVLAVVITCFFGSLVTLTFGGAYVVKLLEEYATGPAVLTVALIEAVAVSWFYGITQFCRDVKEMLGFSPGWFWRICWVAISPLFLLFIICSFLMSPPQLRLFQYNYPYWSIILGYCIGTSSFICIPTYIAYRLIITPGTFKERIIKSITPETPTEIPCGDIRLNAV
Series [2] concerns nicotine-induced antinociception (hot-plate). As to the kind of experiment: Block of nicotine-induced antinociception, hot-plate test. The arrangement: species or system mice. The following applies: mouse, in vivo.
Series [3] concerns nicotine-induced hypothermia. The series is described as follows: Block of nicotine-induced hypothermia. More on the design: species or system mice. As to conditions: mouse, in vivo.
The subject of the next series is nicotine-induced CPP. As to the kind of experiment: Block of development of nicotine conditioned place preference. The following applies: mouse, in vivo. More on the design: species or system mice.
For series [4], the system named is CB-1 cannabinoid receptor. The following applies: cited from earlier work.
The subject of the next series is locomotor activity. The following applies: cited from earlier work.
For series [5] the following is noted: cited from earlier work.
In the next series the target is α3β4*-nAChR (Homo sapiens, UniProt P30926+P32297). The series is described as follows: 86Rb+ efflux assay, SH-SY5Y cells. It is filed as cell-based.
Sequence of α3β4*-nAChR (P32297 32-505): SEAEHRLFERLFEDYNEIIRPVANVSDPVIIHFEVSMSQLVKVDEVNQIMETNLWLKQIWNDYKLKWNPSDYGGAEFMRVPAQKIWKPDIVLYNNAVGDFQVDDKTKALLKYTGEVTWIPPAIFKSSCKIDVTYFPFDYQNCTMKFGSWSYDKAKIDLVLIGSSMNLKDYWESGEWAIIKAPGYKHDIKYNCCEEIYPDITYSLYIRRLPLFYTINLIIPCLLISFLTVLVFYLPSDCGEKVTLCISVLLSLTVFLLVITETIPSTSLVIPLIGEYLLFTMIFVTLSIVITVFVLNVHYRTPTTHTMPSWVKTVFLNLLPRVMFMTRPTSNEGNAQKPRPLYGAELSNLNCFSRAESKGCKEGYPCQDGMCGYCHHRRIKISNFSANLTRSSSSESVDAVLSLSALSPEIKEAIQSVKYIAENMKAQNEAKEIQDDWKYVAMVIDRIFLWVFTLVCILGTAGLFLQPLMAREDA
Sequence of α3β4*-nAChR (P30926 22-498): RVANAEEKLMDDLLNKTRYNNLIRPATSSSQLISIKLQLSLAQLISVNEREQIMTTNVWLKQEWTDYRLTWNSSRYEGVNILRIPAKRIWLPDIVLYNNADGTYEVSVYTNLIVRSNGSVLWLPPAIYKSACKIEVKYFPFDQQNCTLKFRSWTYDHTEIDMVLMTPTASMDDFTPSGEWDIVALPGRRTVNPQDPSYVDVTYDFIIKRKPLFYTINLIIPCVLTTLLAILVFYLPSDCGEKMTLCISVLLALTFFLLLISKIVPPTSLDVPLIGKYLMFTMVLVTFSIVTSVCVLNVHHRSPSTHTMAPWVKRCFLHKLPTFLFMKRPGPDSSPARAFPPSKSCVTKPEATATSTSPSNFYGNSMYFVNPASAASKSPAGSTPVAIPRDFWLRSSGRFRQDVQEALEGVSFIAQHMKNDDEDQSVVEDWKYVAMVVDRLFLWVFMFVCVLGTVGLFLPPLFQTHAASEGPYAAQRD
Series [6] has as its system nicotine-induced locomotor effect. The series is described as follows: Block of nicotine effect on locomotor activity. As to conditions: mouse, in vivo. More on the design: species or system mice.

Sequence of hNET (P23975 whole entry): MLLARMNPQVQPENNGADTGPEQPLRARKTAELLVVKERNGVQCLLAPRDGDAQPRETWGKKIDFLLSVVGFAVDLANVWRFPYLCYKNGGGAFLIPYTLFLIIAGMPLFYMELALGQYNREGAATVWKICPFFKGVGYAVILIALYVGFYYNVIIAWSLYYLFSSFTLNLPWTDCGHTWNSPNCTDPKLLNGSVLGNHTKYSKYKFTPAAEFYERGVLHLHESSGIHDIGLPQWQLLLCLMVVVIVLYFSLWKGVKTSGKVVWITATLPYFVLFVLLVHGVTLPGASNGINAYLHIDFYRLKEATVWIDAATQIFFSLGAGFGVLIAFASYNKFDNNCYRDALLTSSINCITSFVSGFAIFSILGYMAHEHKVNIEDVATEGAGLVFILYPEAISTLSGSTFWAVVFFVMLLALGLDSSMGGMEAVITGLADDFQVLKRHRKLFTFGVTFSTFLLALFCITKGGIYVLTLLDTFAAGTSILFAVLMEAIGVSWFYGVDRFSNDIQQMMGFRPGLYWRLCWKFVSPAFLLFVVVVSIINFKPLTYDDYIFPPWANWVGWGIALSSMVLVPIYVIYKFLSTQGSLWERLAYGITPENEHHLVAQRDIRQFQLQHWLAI

With `CC(NC(C)(C)C)C(=O)c1cccc(Cl)c1` (centres unmarked) [Compound 2, bupropion, reference compound], the ED50 in [1] stood at 1.2 mg/kg.

With `Cc1ccc([C@H]2C[C@@H]3CC[C@H]([C@H]2C(=O)OC(C)C)N3C)cc1` [Compound 4a, 3β-(4-Methylphenyl)tropane-2β-carboxylic acid isopropyl ester], the ED50 in series [1] was 0.015 mg/kg.

Regarding `Cc1ccc([C@H]2C[C@@H]3CC[C@H]([C@H]2C(=O)OC2CCC2)N3C)cc1` [Compound 4b], in series [1], the ED50 is 0.28 mg/kg.

As for `CCc1cc([C@H]2[C@@H](c3ccc(C)cc3)C[C@@H]3CC[C@H]2N3C)on1` [Compound 4c, 3β-(4-methylphenyl)-2β-(3′-ethylisoxazol-5′-yl)tropane], on hNET, the “potency relative to 2 as NE uptake inhibitor” value is on record as ~ 170 fold. Further, the “potency relative to 2 as 5HT uptake inhibitor” value on hSERT is on record as “no less than 5 fold”. Moreover, in series [1], the ED50 came out at 0.008 mg/kg and the “potency relative to 2 in the tail-flick assay” value was 150 fold. For the same molecule, in series [2], the “potency relative to 2 in the hot-plate assay” value came out at 9 fold. Further, the “potency relative to 2 in the hypothermia (body temperature) test” value in series [3] is given as “marginally more potent”.

Take `Cc1ccc([C@H]2C[C@@H]3CC[C@H]([C@H]2c2cc(-c4ccc(Cl)cc4)no2)N3C)cc1` [Compound 4d]: in series [1], the ED50 is more than 20 mg/kg. For the same molecule, in the series with nicotine-induced CPP, the “potency relative to 2 in the CPP assay” value is recorded as 27 fold. Also, the “modulation of the CB-1 cannabinoid receptor” value in series [4] was “positive allosteric modulator”. In addition, the “locomotor activity in rats” value in the series with locomotor activity is recorded as “did not show locomotor activity”. Further, in series [5], the “brain levels in in vivo binding studies” value was “appreciable brain levels were achieved”.

For the molecule `COc1ccc(-c2cc([C@H]3[C@@H](c4ccc(Cl)cc4)C[C@@H]4CC[C@H]3N4C)on2)cc1` [Compound 4e], the “preference for functional inhibition of α3β4*- over α4β4-nAChR” value at α3β4*-nAChR is more than 56 fold. Further, the ED50 in series [1] stood at 0.018 mg/kg.

In the case of `COC(=O)[C@H]1[C@@H](c2ccc(Cl)c(C)c2)C[C@@H]2CC[C@H]1N2C` [Compound 4g, 3β-(4-chlorophenyl-3-methyl)tropane-2β-carboxylic acid methyl ester], the “potency relative to 2 as NE uptake inhibitor” value at hNET was ~ 2000 fold. Further, in [1], the ED50 stood at 0.21 mg/kg and the “potency relative to 2 in the tail-flick assay” value is on record as 6 fold. In addition, the “potency relative to 2 in the hot-plate assay” value in series [2] came out at 40 fold. In [6], the “potency relative to 2 in the locomotor test” value came to 44 fold. Moreover, in series [3], the “potency relative to 2 in the hypothermia (body temperature) test” value turned out to be 65 fold.

As for `COC(=O)[C@H]1[C@@H](c2ccc(Cl)c(C)c2)C[C@@H]2CC[C@H]1N2` [Compound 4h, 3β-(4-chloro-3-methylphenyl)nortropane-2β-carboxylic acid methyl ester], the ED50 in series [1] stood at 0.003 mg/kg.

Regarding `Cc1cc([C@H]2[C@@H](c3ccc(Cl)c(C)c3)C[C@@H]3CC[C@H]2N3C)on1` [Compound 4i, 3β-(4-chloro-3-methylphenyl)-2β-(3′-methylisoxazol-5′-yl)tropane], the “preference for functional inhibition of α3β4*- over α4β2-nAChR” value at α3β4*-nAChR is 11 fold and 10–13 fold. Moreover, the ED50 in series [1] was 0.009 mg/kg.

For `Cc1cc([C@H]2C[C@@H]3CC[C@H]([C@H]2c2cc(-c4ccccc4)no2)N3C)ccc1Cl` [Compound 4j], the “preference for NE over DA uptake inhibition” value at hNET was “comparable”. Further, the “preference for functional inhibition of α3β4*- over α4β2-nAChR” value on α3β4*-nAChR is 10–13 fold. For the same molecule, in series [1], the ED50 amounted to 2.5 mg/kg.

Take `COC(=O)[C@@H]1[C@H]2CC[C@@H](C[C@H]1c1ccc(Cl)c(C)c1)N2C` [Compound 4k, 3α-(4-Chloro-3-methylphenyl)tropane-2β-carboxylic acid Methyl Ester]: the ED50 in series [1] amounted to 0.026 mg/kg.
